Experimental data reported in US12678411B2, “Nanoformulations of pazopanib, compositions comprising the same and methods of treating osteoarthritis” (The United States Government as represented by the …, priority 2021, dated 2026).

Key:
[1] = system: mice with knee joint OA (PMM); test: Mechanical allodynia (von Frey) in surgery-induced (PMM) knee OA mice; assay type: in vivo; conditions: IA 70 μg/kg twice per week, started at inflammatory pain stage
Procedure: Drugs are intraarticularly injected (twice/week) at 4 weeks after surgery (early OA stage). *p<0.05; **p<0.01; ***p<0.001; ****p<0.0001. PMM=partial medial meniscectomy.
2006; 33(2):348-354; and Kroin J S, et al. Gene. 2016. 10; 591(1): 1-5). Next, outcomes between IA injection of ZD6474 (also known as vandetanib, a selective inhibitor of Flk1, 70 μg/kg, injection frequency: twice per week) and pazopanib (an inhibitor of both Flt1 and Flk1, 70 μg/kg, injection frequency: twice per week) were compared. Twice perweek IA injection of these drugs was started at an inflammatory pain stage (within a week post-surgery) and continued for 12 weeks. After 12 weeks, joints were harvested, histopathological analyses performed, and pathological grading quantified by standard Osteoarthritis Research Society International (OARSI) scoring (1: Healthy, 5: Highly pathologic) (K. O. Vasquez and J. D. Peterson. J Pharmacol Exp Ther 2017, 361:87-98).
Nanoparticles of PEG-PCL (5k-b-6.5k) encapsulating pazopanib were prepared by the flash nanoprecipitation method using a multi-inlet vortex mixer (MIVM) (FIG. 13, nano-PAZ(I)). The resulting composition was intraarticularly injected into the knee joint of mice at the inflammatory pain stage (at one week after OA induction by surgery).

mice [2] = conditions: cited from earlier work
mice [3] = test: Mechanical hyperalgesia after intrathecal injection in mice; assay type: in vivo; conditions: intrathecal (i.t.) injection
Procedure: VEGF-A induces pain hypersensitivity through effects in the peripheral nervous system (PNS) and central nervous system (CNS). IA injection of Flt1 ligand (but not Flk1 ligand) caused mechanical hypersensitivity within 30 min (FIG. 2), showing that Flt1 ligands can directly activate the PNS to induce pain. Additionally, it was reported that animals with chronic OA pain had increased spinal levels of VEGF-A (FIG. 10). […] Given the similar dose (10 ng) and time course of mechanical hyperalgesia following IA injection (FIG. 2) and i.t. injections of VEGF-A (FIG. 11), VEGF signaling appears to be equally able to induce pain hypersensitivity in the PNS and CNS.

COc1cc2c(Nc3ccc(Br)cc3F)ncnc2cc1OCC1CCN(C)CC1 [ZD6474, vandetanib]
time after start of drug injection at which reduction in OA pain was seen [1]: 5 weeks

NGF: nerve growth factor, a well-known OA pain mediator
mechanical allodynia after IA injection (mice [2]): acutely increased mechanical allodynia | pain response (mechanical hyperalgesia) (mice [3]): no pain response
